Patent US10174024B2, “5H-pyrido[3,2-B]indole compounds as anticancer agents” (BRISTOL-MYERS SQUIBB COMPANY, priority 2015, dated 2019)
Read-outs that look alike come from different tables or passages of the source.

Target: BRD4 (Homo sapiens, UniProt O60885)
Test: Time Resolved Fluorescence Resonance Energy Transfer (TR-FRET) binding assay, FRET BRD4
Conditions: one of the FRET assays described (BRD4 bromodomain construct not specified)

Compound `[2H]C([2H])([2H])c1nnn(C)c1-c1cnc2c3ccc(N4CCN(S(C)(=O)=O)CC4)cc3n([C@H](c3ccccc3)C3CCOCC3)c2c1` [Example 46, 1-Methanesulfonyl-4-{3-[4-(^2H3)methyl-1-methyl-1H-1,2,3-triazol-5-yl]-5-[(S)-oxan-4-yl(phenyl)methyl]-5H-pyrido[3,2-b]indol-7-yl}piperazine] has an IC50 (read-out: FRET BRD4 IC50) of under 1 nM.

For `Cc1nnn(C)c1-c1cnc2c3ccc(N4CCN(C5CCN(C)CC5)CC4)cc3n([C@H](c3ccccc3)C3CCOCC3)c2c1` [Example 48, 1-[3-(Dimethyl-1H-1,2,3-triazol-5-yl)-5-[(S)-oxan-4-yl(phenyl)methyl]-5H-pyrido[3,2-b]indol-7-yl]-4-(1-methylpiperidin-4-yl)piperazine], the IC50 (read-out: FRET BRD4 IC50) was under 1 nM.

Compound `Cc1nnn(C)c1-c1cnc2c3ccc(N4CCN(C(=O)N(C)C)CC4)cc3n([C@H](c3ccccc3)C3CCOCC3)c2c1` [Example 49, 4-[3-(Dimethyl-1H-1,2,3-triazol-5-yl)-5-[(S)-oxan-4-yl(phenyl)methyl]-5H-pyrido[3,2-b]indol-7-yl]-N,N-dimethylpiperazine-1-carboxamide] has an IC50 (read-out: FRET BRD4 IC50) of under 5 nM.

`Cc1nnn(C)c1-c1cnc2c3ccc(N4CCN(S(=O)(=O)N(C)C)CC4)cc3n([C@H](c3ccccc3)C3CCOCC3)c2c1` [Example 50, 4-[3-(Dimethyl-1H-1,2,3-triazol-5-yl)-5-[(S)-oxan-4-yl(phenyl)methyl]-5H-pyrido[3,2-b]indol-7-yl]-N,N-dimethylpiperazine-1-sulfonamide] showed an IC50 (read-out: FRET BRD4 IC50) of under 5 nM.

`[2H]C([2H])([2H])c1nnn(C)c1-c1cnc2c3cc(N4CCS(=O)(=O)[C@H](C)C4)ccc3n([C@H](c3ccccc3F)C3CCOCC3)c2c1` [Example 51, (2R)-4-{5-[(S)-(2-Fluorophenyl)(oxan-4-yl)methyl]-3-[4-(^2Ha)methyl-1-methyl-1H-1,2,3-triazol-5-yl]-5H-pyrido[3,2-b]indol-8-yl}-2-methyl-1λ^6,4-thiomorpholine-1,1-dione] showed an IC50 (read-out: FRET BRD4 IC50) of under 1 nM.

In the case of `[2H]C([2H])([2H])c1nnn(C)c1-c1cnc2c3cc(N4CCS(=O)(=O)[C@@H](C)C4)ccc3n([C@H](c3ccccc3F)C3CCOCC3)c2c1` [Example 52, (2S)-4-{5-[(S)-(2-Fluorophenyl)(oxan-4-yl)methyl]-3-[4-(^2H3)methyl-1-methyl-1H-1,2,3-triazol-5-yl]-5H-pyrido[3,2-b]indol-8-yl}-2-methyl-11λ^6,4-thiomorpholine-1,1-dione], the IC50 (read-out: FRET BRD4 IC50) is reported as under 1 nM.

Compound `[2H]C([2H])([2H])c1nnn(C)c1-c1cnc2c3ccc(C4(O)CCNCC4)c(F)c3n([C@H](c3ccccc3)C3CCOCC3)c2c1` [Example 53, 4-{6-Fluoro-3-[4-(^2H3)methyl-1-methyl-1H-1,2,3-triazol-5-yl]-5-[(S)-oxan-4-yl(phenyl)methyl]-5H-pyrido[3,2-b]indol-7-yl}piperidin-4-ol] has an IC50 (read-out: FRET BRD4 IC50) of under 1 nM.

Work on `[2H]C([2H])([2H])c1nnn(C)c1-c1cnc2c3ccc(C4(O)CCN(C)CC4)c(F)c3n([C@H](c3ccccc3)C3CCOCC3)c2c1` [Example 54, 4-{6-Fluoro-3-[4-(^2H3)methyl-1-methyl-1H-1,2,3-triazol-5-yl]-5-[(S)-oxan-4-yl(phenyl)methyl]-5H-pyrido[3,2-b]indol-7-yl}-1-methylpiperidin-4-ol] yielded an IC50 (FRET BRD4 IC50 (nM)) of under 1 nM.

For `[2H]C([2H])([2H])c1nnn(C)c1-c1cnc2c3ccc(C4(C)COC(=O)N4)c(F)c3n([C@H](c3ccccc3)C3CCOCC3)c2c1` (stereo partly drawn) [Example 55, 4-{6-Fluoro-3-[4-(^2H3)methyl-1-methyl-1H-1,2,3-triazol-5-yl]-5-[(S)-oxan-4-yl(phenyl)methyl]-5H-pyrido[3,2-b]indol-7-yl}-4-methyl-1,3-oxazolidin-2-one], the IC50 (read-out: FRET BRD4 IC50) was under 1 nM.

In the case of `[2H]C([2H])([2H])c1nnn(C)c1-c1cnc2c3ccc(C4(C)COC(=O)N4)c(F)c3n([C@H](c3ccccc3)C3CCOCC3)c2c1` (stereo partly drawn) [Example 56, 4-{6-Fluoro-3-[4-(^2H3)methyl-1-methyl-1H-1,2,3-triazol-5-yl]-5-[(S)-oxan-4-yl(phenyl)methyl]-5H-pyrido[3,2-b]indol-7-yl}-4-methyl-1,3-oxazolidin-2-one], the IC50 (read-out: FRET BRD4 IC50) is reported as under 1 nM.

`[2H]C([2H])([2H])c1nnn(C)c1-c1cnc2c3ccc(N4CCCC4=O)c(F)c3n([C@H](c3ccccc3)C3CCOCC3)c2c1` [Example 57, 1-{6-Fluoro-3-[4-(^2H3)methyl-1-methyl-1H-1,2,3-triazol-5-yl]-5-[(S)-oxan-4-yl(phenyl)methyl]-5H-pyrido[3,2-b]indol-7-yl}pyrrolidin-2-one] was tested, and the IC50 (read-out: FRET BRD4 IC50) was under 1 nM.

For `[2H]C([2H])([2H])c1nnn(C)c1-c1cnc2c3ccc(N4CCCS4(=O)=O)c(F)c3n([C@H](c3ccccc3)C3CCOCC3)c2c1` [Example 58, 2-{6-Fluoro-3-[4-(^2H3)methyl-1-methyl-1H-1,2,3-triazol-5-yl]-5-[(S)-oxan-4-yl(phenyl)methyl]-5H-pyrido[3,2-b]indol-7-yl}-1λ^6,2-thiazolidine-1,1-dione], the IC50 (read-out: FRET BRD4 IC50) was under 1 nM.

Compound `[2H]C([2H])([2H])c1nnn(C)c1-c1cnc2c3ccc(N4CCNC4=O)c(F)c3n([C@H](c3ccccc3)C3CCOCC3)c2c1` [Example 59, 1-{6-Fluoro-3-[4-(^2H3)methyl-1-methyl-1H-1,2,3-triazol-5-yl]-5-[(S)-oxan-4-yl(phenyl)methyl]-5H-pyrido[3,2-b]indol-7-yl}imidazolidin-2-one] has an IC50 (read-out: FRET BRD4 IC50) of under 5 nM.

For `[2H]C([2H])([2H])c1nnn(C)c1-c1cnc2c3ccc(N4CCOC4=O)c(F)c3n([C@H](c3ccccc3)C3CCOCC3)c2c1` [Example 60, 3-{6-Fluoro-3-[4-(^2H3)methyl-1-methyl-1H-1,2,3-triazol-5-yl]-5-[(S)-oxan-4-yl(phenyl)methyl]-5H-pyrido[3,2-b]indol-7-yl}-1,3-oxazolidin-2-one], the IC50 (read-out: FRET BRD4 IC50) was under 1 nM.

`[2H]C([2H])([2H])c1nnn(C)c1-c1cnc2c3ccc(N4CCCS4(=O)=O)c(F)c3n([C@H](c3ncccc3F)C3CCOCC3)c2c1` [Example 61, 2-{6-Fluoro-5-[(S)-(3-fluoropyridin-2-yl)(oxan-4-yl)methyl]-3-[4-(^2H3)methyl-1-methyl-1H-1,2,3-triazol-5-yl]-5H-pyrido[3,2-b]indol-7-yl}-1λ^6,2-thiazolidine-1,1-dione] gave an IC50 (read-out: FRET BRD4 IC50) of under 5 nM.

Compound `[2H]C([2H])([2H])c1nnn(C)c1-c1cnc2c3ccc(C4(O)CCOCC4)c(F)c3n([C@H](c3ccccc3)C3CCOCC3)c2c1` [Example 62, 4-{6-Fluoro-3-[4-(^2H3)methyl-1-methyl-1H-1,2,3-triazol-5-yl]-5-[(S)-oxan-4-yl(phenyl)methyl]-5H-pyrido[3,2-b]indol-7-yl}oxan-4-ol] has an IC50 (read-out: FRET BRD4 IC50) of under 1 nM.

In the case of `[2H]C([2H])([2H])c1nnn(C)c1-c1cnc2c3ccc(C4(O)CCOC4)c(F)c3n([C@H](c3ccccc3)C3CCOCC3)c2c1` (stereo partly drawn) [Example 63, 3-{6-Fluoro-3-[4-(^2H3)methyl-1-methyl-1H-1,2,3-triazol-5-yl]-5-[(S)-oxan-4-yl(phenyl)methyl]-5H-pyrido[3,2-b]indol-7-yl}oxolan-3-ol], the IC50 (read-out: FRET BRD4 IC50) is reported as under 1 nM.

`[2H]C([2H])([2H])c1nnn(C)c1-c1cnc2c3ccc(C4(O)CCOC4)c(F)c3n([C@H](c3ccccc3)C3CCOCC3)c2c1` (stereo partly drawn) [Example 64, 3-{6-Fluoro-3-[4-(^2H3)methyl-1-methyl-1H-1,2,3-triazol-5-yl]-5-[(S)-oxan-4-yl(phenyl)methyl]-5H-pyrido[3,2-b]indol-7-yl}oxolan-3-ol] was tested, and the IC50 (read-out: FRET BRD4 IC50) was under 1 nM.
